pEC50: −log10 of the molar value. Where two headings read alike, the source gives them in different places.
Experiments:
CYP3A4 = CYP3A4 (Homo sapiens (Human), UniProt P08684); assay: CYP inhibition (BD GENTEST kit); assay type: in vitro ADME; settings: CYP3A4 enzyme of BD GENTEST inhibition kit, pH 7.4, read-out: CYP inhibition (%) 3A4
Text: (§1) CYP is the enzyme involved in drug metabolism. So, the inhibition of this enzyme can change the prediction of dose of a drug and toxicity caused by the co-treatment with other drugs. Therefore, the inventors measured the inhibitory effect of the compounds of Examples of the invention on endogenous CYP3A4, CYP2C9, CYP1A2, CYP2D6, and CYP2C19. At this time, Invitrogen (P2862) was used as the CYP2D6 inhibition kit, and BD GENTEST (459100, 459300, 459400, 459500) was used as the CYP1A2, CYP2C9, CYP2C19, and CYP3A4 inhibition kit. To prepare the Invitrogen kit, the test sample was diluted in distilled water at 2.5× of the final experimental concentration.
(§2) The test sample for BD GENTEST kit was diluted in acetonitrile at 50× of the final experimental concentration. NADPH-coenzyme mixture was prepared by diluting the coenzyme, G6PDH, and regulatory protein included in the kit with distilled water at the concentration instructed by the kit. The prepared 50× sample (4 μL) and the NADPH-coenzyme mixture (96 μL) were mixed in each well of U-bottom 96-well plate, followed by pre-culture for 10 minutes in a 37° C. incubator. Enzyme/substrate mixed solution was prepared by diluting the buffer (0.5 M potassium phosphate, pH 7.4), each CYP450 enzyme/substrate mixed solution included in the kit with distilled water at the instructed concentration. Upon completion of the pre-culture, 100 μL of the enzyme/substrate mixed solution was added in each well of the plate, followed by culture in a 37° C. incubator for 15 minutes (CYP 1A2), 30 minutes (CYP 3A4 and CYP 2C19) or 1 and half hours (CYP 2C9). Upon completion of the reaction, the reactant was transferred onto the white plate, and then fluorescence was measured with a microplate reader (CYP 1A2 and CYP 2C19 excitation wavelength: 410 nm, absorption wavelength: 460 nm; CYP 2C9 and CYP 3A4 excitation wavelength: 409 nm, absorption wavelength: 530 nm). The values obtained above were converted into % as the inhibition rate of the sample by the value of the non-treated group.

CYP2D6 = CYP2D6 (Homo sapiens (Human), UniProt P10635); assay: CYP inhibition (Invitrogen Vivid kit); assay type: in vitro ADME; settings: P450 BACULOSOMES reagent (Invitrogen Vivid CYP2D6 kit P2862), probe Vivid CYP450 substrate, read-out: CYP inhibition (%) 2D6
Text: as §1
P450 BACULOSOMES® reagent and reproducer (100×) included in Invitrogen kit were diluted in Vivid® CYP450 reaction buffer (2×) at the concentration that matched the target CYP450. The prepared 2.5× sample (80 μL) and the diluted P450 BACULOSOMES® reagent mixture (100 μL) were mixed in each well of U-bottom 96-well plate, followed by pre-culture for 20 minutes. Vivid® CYP450 substrate and NADP+ (100×) were diluted in Vivid® CYP450 reaction buffer (2×) at the concentration that matched the target CYP450 and the substrate. Upon completion of the pre-culture, substrate-NADP (nicotinamide adenine dinucleotide phosphate) mixed solution (20 μL) was added thereto, followed by reaction for 1 hour. Upon completion of the reaction, the reactant was transferred onto the white plate, and then fluorescence was measured with a microplate reader (CYP 2D6 excitation wavelength: 400 nm, absorption wavelength: 502 nm). […]

CYP1A2 = CYP1A2 (Homo sapiens (Human), UniProt P05177); assay: CYP inhibition (BD GENTEST kit); assay type: in vitro ADME; settings: pH 7.4
Method: as §1, with “At this time, Invitrogen (P2862) was used as the CYP2D6 inhibition kit, and BD GENTEST (459100, 459300, 459400, 459500) was used as the CYP1A2, CYP2C9, CYP2C19, and CYP3A4 inhibition kit.” left out
as §2, with “Upon completion of the reaction, the reactant was transferred onto the white plate, and then fluorescence was measured with a microplate reader (CYP 1A2 and CYP 2C19 excitation wavelength: 410 nm, absorption wavelength: 460 nm; CYP 2C9 and CYP 3A4 excitation wavelength: 409 nm, absorption wavelength: 530 nm).” left out

CYP2C19 = CYP2C19 (Homo sapiens (Human), UniProt P33261); assay: CYP inhibition (BD GENTEST kit); assay type: in vitro ADME; settings: CYP2C19 enzyme of BD GENTEST inhibition kit, pH 7.4, read-out: CYP inhibition (%) 2C19
Method: as §1, with “At this time, Invitrogen (P2862) was used as the CYP2D6 inhibition kit, and BD GENTEST (459100, 459300, 459400, 459500) was used as the CYP1A2, CYP2C9, CYP2C19, and CYP3A4 inhibition kit.” left out
as §2, with “Upon completion of the reaction, the reactant was transferred onto the white plate, and then fluorescence was measured with a microplate reader (CYP 1A2 and CYP 2C19 excitation wavelength: 410 nm, absorption wavelength: 460 nm; CYP 2C9 and CYP 3A4 excitation wavelength: 409 nm, absorption wavelength: 530 nm).” left out

CYP2C9 = CYP2C9 (Homo sapiens (Human), UniProt P11712); assay: CYP inhibition (BD GENTEST kit); assay type: in vitro ADME; settings: CYP2C9 enzyme of BD GENTEST inhibition kit, pH 7.4, read-out: CYP inhibition (%) 2C9
Method: as §1, with “At this time, Invitrogen (P2862) was used as the CYP2D6 inhibition kit, and BD GENTEST (459100, 459300, 459400, 459500) was used as the CYP1A2, CYP2C9, CYP2C19, and CYP3A4 inhibition kit.” left out
as §2, with “Upon completion of the reaction, the reactant was transferred onto the white plate, and then fluorescence was measured with a microplate reader (CYP 1A2 and CYP 2C19 excitation wavelength: 410 nm, absorption wavelength: 460 nm; CYP 2C9 and CYP 3A4 excitation wavelength: 409 nm, absorption wavelength: 530 nm).” left out

GPR40 = GPR40 (Homo sapiens (Human), UniProt O14842); assay: GPR40 protein activity by intracellular calcium concentration (Fluo-4, Flexstation 3) in transfected HEK-293 cells; assay type: cell-based; settings: HEK-293 cells transfected with human GPR40, intracellular calcium
Method: The GPR40 protein activity according to the novel 3-(4-(benzyloxy)phenyl)hex-4-inoic acid derivative of the present invention was measured by investigating the changes in intracellular calcium concentration affected by the GRP40 activation. First, HEK-293 cells were transfected with human GPR40 DNA (Origene, RC218370) by using Fugene HD (Promega, E2311). […] 24 hours later, the cell culture medium was replaced with Dulbecco's Modified Eagle Medium (DMEM, 50 μl/well) supplemented with 1% fetal bovine serum (FBS). To measure the calcium concentration, 50 μl of Fluo-4 reagent (Invitrogen, F10471) was added to each well, followed by culture in a 37° C. incubator for 2 hours. […] 2 hours after the culture began, those prepared samples were automatically injected to the cells by using Flexstation 3 (Molecular Devices). Then, intracellular calcium concentration was measured for 120 seconds by using SoftMax® Pro software. At this time, dimethylsulfoxide (DMSO) was injected to the cells for the non-treated group, followed by measuring the calcium concentration therein. The GPR40 protein activity was calculated by the below mathematical formula 1 with the results of calcium concentration measurement. GPR40 activity=(intracellular calcium concentration increased by the sample)/(intracellular calcium concentration of the non-treated group)×100 [Mathematical Formula 1]

[1] = test system: Male OLETF (Otsuka Long-Evans Tokushima fatty) rats, the type II diabetes animal model (obesity); assay: Oral glucose tolerance test (OGTT) 3; assay type: in vivo, rat
Method: (§3) Male OLETF (Otsuka Long-Evans Tokushima fatty) rats at 29˜30 weeks, the type II diabetes animal model (obesity), were adapted at least for 7 days. Only healthy animals were selected thereafter, followed by OGTT. After fasting for 16˜18 hours, 5 rats per group were randomly selected and orally administered with the compounds prepared in Examples 5, 9, 14, 28, 37, and 47 at the dose of 1˜10 mg/kg. At this time, 5% polyethyleneglycol (PEG) was orally administered at the same dose to the non-treated group rats. 60 minutes after the sample administration, glucose (4 g/kg) was orally administered thereto at the dose of 5 ml/kg. Then, blood glucose was measured by using Accu-chek active strip (Roche diagnostic Co.). The time for the measurement was set at 60 minutes before the glucose administration (−60), 0 minute, 20 minutes, 40 minutes, 60 minutes, and 120 minutes after the glucose administration, and blood glucose was measured through tail vein puncture.

[2] = test system: Male Goto-Kakizaki (GK) rats, the type II diabetes animal model (not obesity); assay: Oral glucose tolerance test (OGTT) 2; assay type: in vivo, rat
Method: as §3, with “Goto-Kakizaki (GK)” for “OLETF (Otsuka Long-Evans Tokushima fatty)”, “22˜23” for “29˜30”, “(not obesity),” for “(obesity),”, “0.3˜10” for “1˜10”

[3] = values in text, read-out: EC50, concentration promoting activation of GPR40 protein by 50%
[4] = oral dose 10 mg/kg, values in text

Sequence of GPR40 (O14842 whole entry): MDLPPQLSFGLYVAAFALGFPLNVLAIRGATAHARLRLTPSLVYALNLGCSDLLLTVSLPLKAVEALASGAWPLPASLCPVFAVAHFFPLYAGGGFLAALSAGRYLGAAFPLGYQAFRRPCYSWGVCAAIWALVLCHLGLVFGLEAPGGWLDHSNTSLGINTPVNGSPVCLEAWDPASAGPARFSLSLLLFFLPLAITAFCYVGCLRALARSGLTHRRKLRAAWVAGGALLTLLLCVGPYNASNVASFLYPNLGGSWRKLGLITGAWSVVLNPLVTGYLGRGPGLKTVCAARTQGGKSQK
Sequence of CYP3A4 (P08684 whole entry): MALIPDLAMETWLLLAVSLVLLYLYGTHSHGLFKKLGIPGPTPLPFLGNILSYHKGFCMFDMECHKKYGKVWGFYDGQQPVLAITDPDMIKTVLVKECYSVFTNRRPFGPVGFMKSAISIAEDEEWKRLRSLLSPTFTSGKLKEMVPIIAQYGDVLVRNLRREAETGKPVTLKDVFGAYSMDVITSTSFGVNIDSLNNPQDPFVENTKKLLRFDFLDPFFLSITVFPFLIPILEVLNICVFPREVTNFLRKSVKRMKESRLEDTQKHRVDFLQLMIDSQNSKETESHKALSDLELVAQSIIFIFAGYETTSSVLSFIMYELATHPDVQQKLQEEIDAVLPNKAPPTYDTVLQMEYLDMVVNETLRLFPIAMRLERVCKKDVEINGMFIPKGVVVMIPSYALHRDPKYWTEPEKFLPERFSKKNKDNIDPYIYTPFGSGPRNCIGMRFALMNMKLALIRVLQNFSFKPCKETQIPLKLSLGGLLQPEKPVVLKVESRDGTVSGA
Sequence of CYP2C19 (P33261 whole entry): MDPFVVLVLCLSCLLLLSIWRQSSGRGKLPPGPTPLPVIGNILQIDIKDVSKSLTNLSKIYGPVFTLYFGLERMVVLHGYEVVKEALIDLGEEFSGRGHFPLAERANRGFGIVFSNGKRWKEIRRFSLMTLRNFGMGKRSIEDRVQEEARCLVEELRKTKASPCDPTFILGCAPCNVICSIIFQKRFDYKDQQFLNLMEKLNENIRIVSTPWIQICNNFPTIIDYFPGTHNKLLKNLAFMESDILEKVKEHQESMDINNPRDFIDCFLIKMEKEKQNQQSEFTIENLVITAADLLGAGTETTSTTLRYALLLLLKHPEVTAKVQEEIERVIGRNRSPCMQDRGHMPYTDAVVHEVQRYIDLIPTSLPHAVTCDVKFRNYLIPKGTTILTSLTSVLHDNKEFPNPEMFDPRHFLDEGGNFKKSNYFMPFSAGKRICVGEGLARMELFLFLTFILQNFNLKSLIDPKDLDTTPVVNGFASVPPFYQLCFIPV
Sequence of CYP2C9 (P11712 whole entry): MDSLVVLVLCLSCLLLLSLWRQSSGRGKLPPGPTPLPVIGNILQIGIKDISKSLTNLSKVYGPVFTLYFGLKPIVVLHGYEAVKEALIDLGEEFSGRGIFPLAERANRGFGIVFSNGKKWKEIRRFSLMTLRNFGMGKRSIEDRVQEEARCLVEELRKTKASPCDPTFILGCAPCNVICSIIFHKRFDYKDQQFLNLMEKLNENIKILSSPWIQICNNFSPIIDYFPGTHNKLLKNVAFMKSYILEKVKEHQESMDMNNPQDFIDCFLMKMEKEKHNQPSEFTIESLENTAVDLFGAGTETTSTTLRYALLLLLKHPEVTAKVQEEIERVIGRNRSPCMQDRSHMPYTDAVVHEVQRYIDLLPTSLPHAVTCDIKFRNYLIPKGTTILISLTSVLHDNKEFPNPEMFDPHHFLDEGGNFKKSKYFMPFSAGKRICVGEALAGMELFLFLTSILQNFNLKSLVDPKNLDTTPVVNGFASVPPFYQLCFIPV
Sequence of CYP2D6 (P10635 whole entry): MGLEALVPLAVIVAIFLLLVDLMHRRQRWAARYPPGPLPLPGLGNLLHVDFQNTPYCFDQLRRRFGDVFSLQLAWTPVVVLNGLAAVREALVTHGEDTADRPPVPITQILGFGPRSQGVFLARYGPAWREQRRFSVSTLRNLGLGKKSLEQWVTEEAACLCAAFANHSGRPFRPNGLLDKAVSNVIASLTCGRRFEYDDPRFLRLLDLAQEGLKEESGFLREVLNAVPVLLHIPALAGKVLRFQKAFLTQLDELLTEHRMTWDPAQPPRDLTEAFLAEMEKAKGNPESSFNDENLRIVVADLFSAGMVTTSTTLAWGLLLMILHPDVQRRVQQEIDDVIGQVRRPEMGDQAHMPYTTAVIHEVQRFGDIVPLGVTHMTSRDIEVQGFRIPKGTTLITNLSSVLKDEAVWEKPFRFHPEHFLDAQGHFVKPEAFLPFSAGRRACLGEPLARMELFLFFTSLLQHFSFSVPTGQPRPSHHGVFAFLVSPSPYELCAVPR
Sequence of CYP1A2 (P05177 whole entry): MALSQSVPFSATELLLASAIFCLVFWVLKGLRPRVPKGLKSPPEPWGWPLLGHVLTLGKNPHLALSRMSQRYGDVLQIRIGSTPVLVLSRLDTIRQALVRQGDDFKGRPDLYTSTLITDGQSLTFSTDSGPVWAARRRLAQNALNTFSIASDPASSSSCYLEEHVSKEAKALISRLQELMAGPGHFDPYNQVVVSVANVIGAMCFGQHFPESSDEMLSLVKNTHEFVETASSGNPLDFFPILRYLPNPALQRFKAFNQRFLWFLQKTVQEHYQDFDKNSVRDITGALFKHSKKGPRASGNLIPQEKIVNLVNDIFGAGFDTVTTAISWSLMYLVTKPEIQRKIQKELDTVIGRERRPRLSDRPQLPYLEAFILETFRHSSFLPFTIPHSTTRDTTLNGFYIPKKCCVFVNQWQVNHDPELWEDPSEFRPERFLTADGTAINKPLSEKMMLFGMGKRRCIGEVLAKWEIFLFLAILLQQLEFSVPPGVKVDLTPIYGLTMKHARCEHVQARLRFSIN

Row | Structure (SMILES) | inhibition at 30 min, 10 µM (CYP3A4) | inhibition at 1 h, 10 µM (CYP2D6) | inhibition at 15 min, 10 µM (CYP1A2) | inhibition at 30 min, 10 µM (CYP2C19) | inhibition at 1.5 h, 10 µM (CYP2C9) | pEC50 (GPR40; read-out: EC50) | pEC50 (GPR40; [3]) | % AUC ([1]; oral dose 1 mg/kg) | % AUC ([1]; oral dose 3 mg/kg) | % AUC ([1]; oral dose 10 mg/kg) | % AUC ([2]; oral dose 0.3 mg/kg) | % AUC ([2]; oral dose 1 mg/kg) | % AUC ([2]; oral dose 3 mg/kg) | % AUC ([2]; oral dose 10 mg/kg) | hypoglycemic effect compared to Comparative Example 1 at 10 mg/kg ([1]; oral dose 1 mg/kg) | hypoglycemic effect compared with the non-treated group [1, 4] | hypoglycemic effect by that of the non-treated group [2, 4]
1 | CC#CC(CC(=O)O)c1ccc(OCc2cccc(C3=CCC4(CC3)OCCO4)c2)cc1 (stereo not shown) [Example 1, 3-(4-(3-(1,4-dioxaspiro[4,5]dec-7-en-8-yl)benzyloxy)phenyl)hex-4-ynoic acid] | 12.7% | 1.9% | 0% | 18.3% | 42.8% | – | – | – | – | – | – | – | – | – | – | – | –
2 | CC#C[C@@H](CC(=O)[O-])c1ccc(OCc2ccc(CN3Cc4ccccc4C3)cc2)cc1.[Na+] [Example 37, sodium (S)-3-(4-(4-(isoindoline-2-ylmethyl)benzyloxy)phenyl)hex-4-ynoate] | – | – | – | – | – | – | – | A (over 35.0%) | A (over 35.0%) | A (over 35.0%) | C (under 25.0%) | B (25.0-35.0%) | B (25.0-35.0%) | A (over 35.0%) | higher hypoglycemic effect | more than 35.0% | more than 35.0%

More lines, main results first:

Row | inhibition at 30 min, 10 µM (CYP3A4) | inhibition at 1 h, 10 µM (CYP2D6) | inhibition at 15 min, 10 µM (CYP1A2) | inhibition at 30 min, 10 µM (CYP2C19) | inhibition at 1.5 h, 10 µM (CYP2C9) | pEC50 (GPR40; read-out: EC50) | pEC50 (GPR40; [3]) | Structure (SMILES) | % AUC ([1]; oral dose 1 mg/kg) | % AUC ([1]; oral dose 3 mg/kg) | % AUC ([1]; oral dose 10 mg/kg) | % AUC ([2]; oral dose 0.3 mg/kg) | % AUC ([2]; oral dose 1 mg/kg) | % AUC ([2]; oral dose 3 mg/kg) | % AUC ([2]; oral dose 10 mg/kg) | hypoglycemic effect compared to Comparative Example 1 at 10 mg/kg ([1]; oral dose 1 mg/kg) | hypoglycemic effect compared with the non-treated group [1, 4] | hypoglycemic effect by that of the non-treated group [2, 4]
3 | – | – | – | – | – | 6.52 to 6.70 | – | CC#CC(CC(=O)O)c1ccc(OCc2cccc(C3=CCC(O)CC3)c2)cc1 (stereo not shown) [Example 5, 3-(4-(3-(4-hydroxycyclohex-1-enyl)benzyloxy)phenyl)hex-4-ynoic acid] | B (25.0-35.0%) | B (25.0-35.0%) | A (over 35.0%) | C (under 25.0%) | C (under 25.0%) | C (under 25.0%) | B (25.0-35.0%) | – | – | –
4 | – | – | – | – | – | > 6.70 | > 6.70 | CC#CC(CC(=O)O)c1ccc(OCc2ccc(CN3CC=C(c4ccccc4)CC3)cc2)cc1 (stereo not shown) [Example 14, 3-(4-(4-((4-phenyl-5,6-dihydropyridine-1(2H)-yl)methyl)benzyloxy)phenyl)hex-4-ynoic acid] | C (under 25.0%) | B (25.0-35.0%) | B (25.0-35.0%) | C (under 25.0%) | C (under 25.0%) | B (25.0-35.0%) | B (25.0-35.0%) | – | – | –
5 | – | – | – | – | – | > 6.70 | > 6.70 | CC#C[C@@H](CC(=O)O)c1ccc(OCc2ccc(CN3CC=C(c4ccccc4)CC3)cc2)cc1 [Example 28, (S)-3-(4-(4-((4-phenyl-5,6-dihydropyridine-1(2H)-yl)methyl)benzyloxy)phenyl)hex-4-ynoic acid] | B (25.0-35.0%) | B (25.0-35.0%) | B (25.0-35.0%) | C (under 25.0%) | C (under 25.0%) | C (under 25.0%) | B (25.0-35.0%) | – | – | –
6 | – | – | – | – | – | 6.52 to 6.70 | – | CC#C[C@@H](CC(=O)[O-])c1ccc(OCc2cccc(N3CCN(c4ccc(OC)cc4)CC3)c2)cc1.[Na+] [Example 47, sodium (S)-3-(4-(3-(4-(4-methoxyphenyl)piperazin-1-yl)benzyloxy)phenyl)hex-4-ynoate] | C (under 25.0%) | C (under 25.0%) | B (25.0-35.0%) | C (under 25.0%) | C (under 25.0%) | B (25.0-35.0%) | B (25.0-35.0%) | – | – | –

From patent US9969723B2, “3-(4-(benzyloxy)phenyl)hex-4-ynoic acid derivative, method of preparing same and pharmaceutical composition for preventing and treating metabolic disease including same as effective ingredient” (HYUNDAI PHARM CO., LTD, priority 2014, dated 2018)
